Activity calls are given as the source filed them. Unless noted, the calls are words filed in the database; no cut-off is given here.
Tests used:
[1] = biological target: Dual specificity protein phosphatase 6 (Rattus norvegicus, UniProt Q64346); test: inhibition of rat DUSP6 enzyme activity – biochemical, in vitro, primary screen (AID 425)
[2] = biological target: T1, Dual specificity protein phosphatase 3 (Homo sapiens, UniProt P51452); test: VHR1 phosphatase inhibitors, primary screen, biochemical, absorbance, uHTS (AID 1654)
T1 sequence (P51452 whole entry): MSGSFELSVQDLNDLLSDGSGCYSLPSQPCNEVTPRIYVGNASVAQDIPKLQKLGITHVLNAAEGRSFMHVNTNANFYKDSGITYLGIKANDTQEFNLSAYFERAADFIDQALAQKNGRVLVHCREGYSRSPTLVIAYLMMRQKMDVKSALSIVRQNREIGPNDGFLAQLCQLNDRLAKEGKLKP

Cytochrome P450 2C9 = Cytochrome P450 2C9 (Homo sapiens, UniProt P11712)
Chain of Cytochrome P450 2C9 (P11712 whole entry): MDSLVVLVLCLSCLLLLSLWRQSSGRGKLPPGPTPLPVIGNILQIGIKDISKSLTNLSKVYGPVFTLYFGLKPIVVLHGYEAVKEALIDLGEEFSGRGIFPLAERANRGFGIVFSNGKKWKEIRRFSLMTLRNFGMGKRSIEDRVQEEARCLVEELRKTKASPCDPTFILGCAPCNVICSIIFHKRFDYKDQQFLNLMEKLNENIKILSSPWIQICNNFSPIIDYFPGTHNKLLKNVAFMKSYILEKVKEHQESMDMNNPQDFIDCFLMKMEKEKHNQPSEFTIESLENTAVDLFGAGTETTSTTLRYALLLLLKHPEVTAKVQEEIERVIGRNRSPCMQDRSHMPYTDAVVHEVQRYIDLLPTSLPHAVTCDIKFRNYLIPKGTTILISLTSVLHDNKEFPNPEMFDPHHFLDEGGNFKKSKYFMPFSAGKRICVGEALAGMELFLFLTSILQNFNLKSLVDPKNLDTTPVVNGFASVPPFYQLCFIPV

[3] = biological target: T1, Dual specificity protein phosphatase 3; test: VHR1 phosphatase inhibitors, biochemical (AID 1878)
[4] = biological target: T2, Kappa-type opioid receptor (Homo sapiens, UniProt P41145); test: SAR analysis of Agonists of the Kappa Opioid Receptor (KOR) using an Image-Based Assay - Set 2. [Related pubchem assays (depositor defined):AID1777, AID1786, AID1966, AID2133, AID2136, AID2284, AID2285, AID2359]; format: functional
T2 sequence (P41145 whole entry): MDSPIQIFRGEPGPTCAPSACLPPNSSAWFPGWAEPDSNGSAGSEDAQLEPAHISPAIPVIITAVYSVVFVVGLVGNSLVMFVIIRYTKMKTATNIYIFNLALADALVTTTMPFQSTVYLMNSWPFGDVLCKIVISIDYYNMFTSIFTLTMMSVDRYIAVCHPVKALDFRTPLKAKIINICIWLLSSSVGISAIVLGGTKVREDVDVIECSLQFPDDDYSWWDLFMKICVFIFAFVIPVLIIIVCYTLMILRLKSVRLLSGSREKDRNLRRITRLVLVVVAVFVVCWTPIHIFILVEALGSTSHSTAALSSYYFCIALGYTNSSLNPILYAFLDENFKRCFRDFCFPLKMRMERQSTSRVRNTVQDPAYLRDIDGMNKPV

Mu-type opioid receptor [5] = biological target: T3, Mu-type opioid receptor (Homo sapiens, UniProt P35372); test: SAR Analysis of Antagonists of the MOR Receptor using an Image-Based Assay - Set 2. [Related pubchem assays (depositor defined):AID1777, AID1785, AID1786, AID1966, AID2133, AID2136, AID2284, AID2285, AID2420]; format: functional
T3 sequence (P35372 whole entry): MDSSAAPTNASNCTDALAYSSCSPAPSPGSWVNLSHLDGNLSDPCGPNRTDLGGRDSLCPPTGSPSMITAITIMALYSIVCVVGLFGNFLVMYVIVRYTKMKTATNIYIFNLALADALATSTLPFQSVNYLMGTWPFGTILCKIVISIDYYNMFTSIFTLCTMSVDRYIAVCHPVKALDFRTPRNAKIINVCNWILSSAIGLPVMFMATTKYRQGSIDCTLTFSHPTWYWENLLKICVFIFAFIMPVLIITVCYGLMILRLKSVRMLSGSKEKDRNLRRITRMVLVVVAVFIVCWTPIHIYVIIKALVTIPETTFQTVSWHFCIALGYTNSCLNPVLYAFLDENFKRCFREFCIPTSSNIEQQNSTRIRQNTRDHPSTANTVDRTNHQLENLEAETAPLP

[6] = biological target: T2, Kappa-type opioid receptor; test: SAR analysis of Antagonists of the Kappa Opioid Receptor (KOR) using an Image-Based Assay - Set 2. [Related pubchem assays (depositor defined):AID1777, AID1785, AID1786, AID1966, AID2133, AID2136, AID2284, AID2285, AID2348]; format: functional
[7] = biological target: T4, Delta-type opioid receptor (Homo sapiens, UniProt P41143); test: SAR Analysis of Agonists of the DOR Receptor using an Image-Based Assay - Set 2. [Related pubchem assays (depositor defined):AID1777, AID1785, AID1786, AID1966, AID2133, AID2136, AID2284, AID2285, AID2370]; format: functional
T4 sequence (P41143 whole entry): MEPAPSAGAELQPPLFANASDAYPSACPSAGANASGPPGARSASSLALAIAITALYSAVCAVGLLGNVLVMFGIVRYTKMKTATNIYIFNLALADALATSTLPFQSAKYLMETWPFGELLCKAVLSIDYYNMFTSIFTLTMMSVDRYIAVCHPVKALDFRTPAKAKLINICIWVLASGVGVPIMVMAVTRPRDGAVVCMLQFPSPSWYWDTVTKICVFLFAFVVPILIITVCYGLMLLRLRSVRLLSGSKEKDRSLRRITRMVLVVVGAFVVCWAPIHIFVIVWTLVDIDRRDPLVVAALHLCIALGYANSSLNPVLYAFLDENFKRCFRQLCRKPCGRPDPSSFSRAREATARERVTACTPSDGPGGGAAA

[8] = biological target: T2, Kappa-type opioid receptor; test: SAR analysis of small molecule agonists of the kappa opioid receptor via a luminescent beta-arrestin assay - Set 2. [Related pubchem assays (depositor defined):AID1777, AID1785, AID1786, AID1966, AID2133, AID2136, AID2284, AID449737]; format: functional
[9] = biological target: T4, Delta-type opioid receptor; test: SAR Analysis of Antagonists of the DOR Receptor using an Image-Based Assay - Set 2. [Related pubchem assays (depositor defined):AID1777, AID1785, AID1786, AID1966, AID2133, AID2136, AID2284, AID2285, AID2357]; format: functional
Mu-type opioid receptor [10] = biological target: T3, Mu-type opioid receptor; test: SAR Analysis of Agonists of the MOR Receptor using an Image-Based Assay - Set 2. [Related pubchem assays (depositor defined):AID1777, AID1785, AID1786, AID1966, AID2133, AID2136, AID2284, AID2285, AID2352]; format: functional
[11] = biological target: Voltage-dependent T-type calcium channel subunit alpha-1H (Homo sapiens, UniProt O95180); test: inhibition of CACNA1H calcium flux – cell-based, SynthLib3 library, HEK293 Cav3.2, fluorescence (AID 493041); format: functional
Chain of Voltage-dependent T-type calcium channel subunit alpha-1H (O95180 whole entry): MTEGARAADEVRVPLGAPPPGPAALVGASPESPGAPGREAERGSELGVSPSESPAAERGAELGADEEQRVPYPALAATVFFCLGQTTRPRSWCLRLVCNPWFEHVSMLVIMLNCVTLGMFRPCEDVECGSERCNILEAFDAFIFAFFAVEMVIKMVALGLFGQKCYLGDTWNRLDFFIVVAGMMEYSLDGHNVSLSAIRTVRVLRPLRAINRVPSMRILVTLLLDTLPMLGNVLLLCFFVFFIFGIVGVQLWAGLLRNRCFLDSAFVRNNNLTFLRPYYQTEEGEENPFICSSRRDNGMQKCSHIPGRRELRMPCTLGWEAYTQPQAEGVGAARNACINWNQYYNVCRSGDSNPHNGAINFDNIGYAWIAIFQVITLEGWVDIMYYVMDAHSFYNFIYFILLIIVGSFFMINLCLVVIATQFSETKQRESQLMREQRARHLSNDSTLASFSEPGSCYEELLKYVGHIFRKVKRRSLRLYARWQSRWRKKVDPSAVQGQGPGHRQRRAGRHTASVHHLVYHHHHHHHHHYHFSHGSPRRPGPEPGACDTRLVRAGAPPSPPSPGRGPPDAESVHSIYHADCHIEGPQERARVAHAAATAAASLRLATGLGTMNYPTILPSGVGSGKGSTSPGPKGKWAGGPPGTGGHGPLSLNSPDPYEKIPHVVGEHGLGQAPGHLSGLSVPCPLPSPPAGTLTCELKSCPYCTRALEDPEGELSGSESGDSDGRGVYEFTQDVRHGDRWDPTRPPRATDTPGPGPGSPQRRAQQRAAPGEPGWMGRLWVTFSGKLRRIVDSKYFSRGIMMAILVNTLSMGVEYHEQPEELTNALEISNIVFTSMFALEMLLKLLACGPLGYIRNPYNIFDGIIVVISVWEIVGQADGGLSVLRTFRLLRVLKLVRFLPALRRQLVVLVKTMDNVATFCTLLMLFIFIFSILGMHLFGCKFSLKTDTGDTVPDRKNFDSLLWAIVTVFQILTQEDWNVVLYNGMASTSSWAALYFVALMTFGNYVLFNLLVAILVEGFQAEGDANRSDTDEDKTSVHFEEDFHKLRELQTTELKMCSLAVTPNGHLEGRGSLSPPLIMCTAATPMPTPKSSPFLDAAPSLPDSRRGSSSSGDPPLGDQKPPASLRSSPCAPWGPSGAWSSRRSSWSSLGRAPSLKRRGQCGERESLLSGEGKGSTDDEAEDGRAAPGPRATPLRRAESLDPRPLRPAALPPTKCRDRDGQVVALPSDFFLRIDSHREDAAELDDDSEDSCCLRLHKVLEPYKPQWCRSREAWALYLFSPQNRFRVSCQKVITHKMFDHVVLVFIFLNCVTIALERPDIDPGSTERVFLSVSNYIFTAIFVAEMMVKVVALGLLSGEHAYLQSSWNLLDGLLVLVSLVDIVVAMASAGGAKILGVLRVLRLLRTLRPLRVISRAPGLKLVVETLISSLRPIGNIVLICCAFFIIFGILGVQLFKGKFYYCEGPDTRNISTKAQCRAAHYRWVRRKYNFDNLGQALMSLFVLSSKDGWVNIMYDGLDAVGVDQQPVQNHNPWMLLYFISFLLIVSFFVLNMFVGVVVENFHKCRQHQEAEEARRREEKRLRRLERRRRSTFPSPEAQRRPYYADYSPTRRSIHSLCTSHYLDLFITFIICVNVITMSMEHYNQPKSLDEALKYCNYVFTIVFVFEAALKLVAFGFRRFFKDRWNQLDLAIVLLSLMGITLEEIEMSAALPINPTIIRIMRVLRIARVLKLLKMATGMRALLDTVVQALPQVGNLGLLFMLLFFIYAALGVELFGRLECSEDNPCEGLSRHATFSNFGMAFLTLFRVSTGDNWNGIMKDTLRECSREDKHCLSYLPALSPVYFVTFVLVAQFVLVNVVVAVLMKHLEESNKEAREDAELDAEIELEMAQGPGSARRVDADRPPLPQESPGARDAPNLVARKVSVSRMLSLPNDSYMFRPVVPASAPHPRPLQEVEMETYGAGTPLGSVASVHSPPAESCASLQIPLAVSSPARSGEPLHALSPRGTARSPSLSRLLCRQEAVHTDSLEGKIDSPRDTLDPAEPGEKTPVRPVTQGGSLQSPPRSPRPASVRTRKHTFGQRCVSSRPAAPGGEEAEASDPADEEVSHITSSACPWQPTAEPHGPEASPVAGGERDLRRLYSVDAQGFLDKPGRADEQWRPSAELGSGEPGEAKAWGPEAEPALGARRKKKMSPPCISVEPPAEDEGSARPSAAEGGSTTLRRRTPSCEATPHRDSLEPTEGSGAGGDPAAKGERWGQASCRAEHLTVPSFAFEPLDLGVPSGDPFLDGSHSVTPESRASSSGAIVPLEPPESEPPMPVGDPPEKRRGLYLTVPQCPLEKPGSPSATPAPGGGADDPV

Chain of Dual specificity protein phosphatase 6 (Q64346 whole entry): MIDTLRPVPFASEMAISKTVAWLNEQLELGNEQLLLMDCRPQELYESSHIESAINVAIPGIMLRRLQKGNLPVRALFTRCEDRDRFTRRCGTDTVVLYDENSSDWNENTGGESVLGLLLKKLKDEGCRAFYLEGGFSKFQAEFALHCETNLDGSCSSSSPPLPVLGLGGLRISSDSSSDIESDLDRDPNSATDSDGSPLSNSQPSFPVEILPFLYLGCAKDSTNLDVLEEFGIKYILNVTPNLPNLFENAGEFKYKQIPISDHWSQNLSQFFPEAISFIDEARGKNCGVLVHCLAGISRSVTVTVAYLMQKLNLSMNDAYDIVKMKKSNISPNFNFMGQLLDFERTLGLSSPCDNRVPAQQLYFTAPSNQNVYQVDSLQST

CCC(=S)/C=C1\Sc2ccccc2N1CCCS(=O)(=O)O
IC50 [1]: > 158 µM (not active)
IC50 [2]: 4.33 µM (active)
AC50 (Cytochrome P450 2C9): 22.4 µM (inconclusive)
IC50 [3]: 8.29 µM (active)

c1ccc(CSc2nnc(-c3ccccn3)n2Cc2cccs2)cc1
EC50 [4]: 23.5 µM (inactive)
IC50 (Mu-type opioid receptor [5]): > 32 µM (inactive)
IC50 [6]: > 32 µM (inactive)
EC50 [7]: > 32 µM (inactive)
EC50 [8]: 13.9 µM (inactive)
IC50 [9]: > 32 µM (inactive)
EC50 (Mu-type opioid receptor [10]): > 32 µM (inactive)

CC(C)(C)CCN1C[C@@H]2C(CNC(=O)c3cc(Cl)cc(Cl)c3)[C@@H]2C1 (some centres not stated)
EC50 [11]: 0.17 µM (active)

Source: ChEMBL document CHEMBL1201862, “PubChem BioAssay data set” (2004)
